According to patent publication US5716971A, “Pyridine derivatives, their production and use” (Takeda Chemical Industries, Ltd., priority 1993, dated 1998):
Like-named read-outs stand apart in the source and are kept apart here.

Tests used:
specimen of rat aorta [1] = assay: Vasorelaxation activity in a specimen of rat aorta: contraction caused by KCl; conditions: read-out: constriction inhibitory ratio
Protocol: (§1) Male Wister rats (10 to 13 week old were employed for the experiment. After dehematization, the aorta was excised and a ring specimen (5 mm length) was prepared. The specimen was suspended in a bath filled with oxygenated (95% O2 -5%CO2) Krebs solution (36° C.). The ring specimen was fixed at one end and the other end was connected to a transducer (Nippon Koden) for recording tension to determine the tension. After a stabilization period of one hour, TEA (30-45 mM) and BaCl2 (0.3 mM) were added to the bath to cause vasoconstriction. After the constriction had reached a steady state (after about 15 minutes), a test compound was added to the bath and its relaxation activity was measured.
Vasorelaxation activity in a specimen of rat aorta Effects on contraction caused by potassium chloride (KCl)
The same experiment was conducted as in Experiment 1, excepting the use of KCl ([…]) instead of TEA and BaCl2

specimen of rat aorta [2] = assay: Vasorelaxation activity in a specimen of rat aorta: contraction caused by TEA and BaCl2; conditions: TEA (30-45 mM) and BaCl2 (0.3 mM) contraction, read-out: constriction inhibitory ratio
Protocol: Vasorelaxation activity in a specimen of rat aorta Effects on contraction caused by tetraethylammonium chloride (TEA) and barium chloride (BaCl2)
as §1

[3] = test system: Spontaneously hypertensive rats; assay: Hypotensive activity in rats (Tail Cuff Method), oral; type: in vivo; conditions: Rattus norvegicus, 1 mg/kg, SHR
Protocol: Hypotensive activity in rats (Tail Cuff Method)
Spontaneously hypertensive rats (SHR, male, 20 to 23 week old) were warmed up to 36° C. The blood pressure at the tail aorta was measured by the tail cuff method. The blood pressure was measured three times, i.e. before oral administration of the test compound, two hours after the administration and five hours after the administration. The test compound was orally administered in the state of a suspension in gum arabic.
Maximal, hypotensive effect against the blood pressure before the administration is shown as % pre. in Table 66. As a result, it is apparent that the compounds of this invention show hypotensive activity.

[4] = after 2 hours, read-out: Maximal hypotensive effect against blood pressure before administration (% pre.), after 2 hours
[5] = after 5 hours, read-out: Maximal hypotensive effect against blood pressure before administration (% pre.), after 5 hours

Row | SMILES | inhibition at 1 µM (specimen of rat aorta [1]) [%] | inhibition at 1 µM (specimen of rat aorta [2]) [%] | inhibition at 3 µM (specimen of rat aorta [1]) [%] | inhibition at 3 µM (specimen of rat aorta [2]) [%] | inhibition in vivo at 1 mg/kg [3, 4] [%] | inhibition in vivo at 1 mg/kg [3, 5] [%] | inhibition at 10 µM (specimen of rat aorta [2]) [%] | inhibition at 10 µM (specimen of rat aorta [1]) [%]
1 | CC(C)(C)O/N=C(/c1cc(Cl)ccc1O)c1ncccc1Cl [Compound 147, (Z)-2-(5-chloro-2-hydroxybenzoyl)-3-chloro pyridine O-t-butyloxime] | 16 | 100 |  |  |  |  |  | 
2 | CC(C)O/N=C(/c1cc(Br)ccc1O)c1ncccc1O [Compound 19, (Z)-2-(5-bromo-2-hydroxybenzoyl)-3-hydroxypyridine O-i-propyloxime] | -5 | 58 | 6 | 95 |  |  |  | 
3 | CC(C)(C)O/N=C(/c1cc(Br)c(Cl)cc1O)c1c(O)ccc[n+]1[O-] [Compound 119, (Z)-2-(5-bromo-4-chloro-2-hydroxybenzoyl)-3-hydroxypyridine N-oxide O-t-butyloxime] | 5 | 69 | 6 | 71 | 48 | 29 |  | 
4 | CCCCO/N=C(/c1cc(Br)ccc1O)c1ncccc1O [Compound 18] |  |  |  | 41 |  |  | 63 | 
5 | CC(C)(C)O/N=C(/c1cc(Br)ccc1O)c1cccc[n+]1[O-] [Compound 89, (Z)-2-(5-bromo-2-hydroxybenzoyl)pyridine N-oxide O-t-butyloxime] |  |  | 11 | 55 |  |  | 85 | 32
6 | Cc1cc(O)c(/C(=N/OC(C)(C)C)c2ncccc2O)cc1C [Compound 106, (Z)-2-(2-hydroxy-4,5-dimethylbenzoyl)-3-hydroxy pyridine O-t-butyloxime] | 0 | 2 | 5 | 56 |  |  | 100 | 39
7 | Cc1cc(O)c(/C(=N/OC(C)(C)C)c2c(O)ccc[n+]2[O-])cc1F [Compound 127, (Z)-2-(5-fluoro-2-hydroxy-4-methylbenzoyl)-3-hydroxy pyridine N-oxide O-t-butyloxime] |  | 8 | 0 | 85 |  |  | 100 | 0
8 | CC(C)(C)O/N=C(/c1cc(C=O)ccc1O)c1ncccc1O [Compound 117] | 4 | 10 | 12 | 52 |  |  | 99 | 32
9 | Cc1cc(O)c(/C(=N/OC(C)(C)C)c2ncccc2O)cc1F [Compound 114, (Z)-2-(5-fluoro-2-hydroxy-4-methylbenzoyl)-3-hydroxy pyridine O-t-butyloxime] | 0 | 65 | 0 | 89 |  |  |  | 
10 | CC(C)(C)O/N=C(/c1cc([N+](=O)[O-])ccc1O)c1c(O)ccc[n+]1[O-] [Compound 64, (Z)-2-(2-hydroxy-5-nitrobenzoyl)-3-hydroxypyridine N-oxide O-t-butyloxime] |  |  | 0 | 43 |  |  | 100 | 4
11 | CC(C)(C)O/N=C(/c1cc(Br)c(F)cc1O)c1c(O)ccc[n+]1[O-] [Compound 69, (Z)-2-(5-bromo-4-fluoro-2-hydroxybenzoyl)-3-hydroxypyridine N-oxide O-t-butyloxime] | 0 | 100 |  |  | 26 | 19 |  | 
12 | CC(C)(C)O/N=C(/c1ccc(F)cc1O)c1ncccc1O [Compound 30, (Z)-2-(4-fluoro-2-hydroxybenzoyl)-3-hydroxypyridine O-t-butyloxime] |  | 4 | 1 | 50 |  |  | 92 | 18
13 | CC(C)(C)O/N=C(/c1cc(Cl)ccc1O)c1c(O)ccc[n+]1[O-] [Compound 123] |  |  | 0 | 52 | 37 | 12 | 91 | 0
14 | CC(C)(C)O/N=C(/c1cc(F)ccc1O)c1ncccc1O [Compound 8, (Z)-2-(5-fluoro-2-hydroxybenzoyl)-3-hydroxypyridine O-t-butyloxime] | -9 | 16 | -2 | 93 |  |  |  | 
15 | CCOc1cc(O)c(/C(=N/OC(C)(C)C)c2ncccc2O)cc1Cl [Compound 160] | 18 | 100 |  |  |  |  |  | 
16 | CC(C)(C)O/N=C(/c1cc(Cl)c(Cl)cc1O)c1c(O)ccc[n+]1[O-] [Compound 122, (Z)-2-(4,5-dichloro-2-hydroxybenzoyl)-3-hydroxypyridine N-oxide O-t-butyloxime] | 0 | 100 |  |  | 30 | 24 |  | 
17 | Cc1cc(O)c(/C(=N/OC(C)(C)C)c2c(O)ccc[n+]2[O-])cc1C [Compound 125, (Z)-2-(2-hydroxy-4,5-dimethyl-benzoyl)-3-hydroxy pyridine N-oxide O-t-butyloxime] |  |  | 1 | 25 |  |  | 78 | 8
18 | CC(C)(C)O/N=C(/c1cc(C#N)ccc1O)c1ncccc1O [Compound 9, (Z)-2-(5-cyano-2-hydroxybenzoyl)-3-hydroxypyridine O-t-butyloxime] |  |  | 0 | 22 |  |  | 82 | 10
19 | CC(C)(C)O/N=C(/c1cc(Br)c(F)cc1O)c1ncccc1O [Compound 68, (Z)-2-(5-bromo-4-fluoro-2-hydroxybenzoyl)-3-hydroxypyridine O-t-butyloxime] | 4 | 92 |  |  |  |  |  | 
20 | Cc1cc(/C(=N/OC(C)(C)C)c2ncccc2O)c(O)cc1F [Compound 111, (Z)-2-(4-fluoro-2-hydroxy-5-methylbenzoyl)-3-hydroxy pyridine O-t-butyloxime] | 0 | 81 | 0 | 92 |  |  |  | 
21 | CC(C)(C)O/N=C(/c1cc(C(F)(F)F)ccc1O)c1ncccc1O [Compound 4, (Z)-2-(5-trifluoromethyl-2-hydroxybenzoyl)-3-hydroxypyridine O-t-butyloxime] | -2 | 38 | 7 | 79 |  |  |  | 
22 | COc1cc(O)c(/C(=N/OC(C)(C)C)c2c(O)ccc[n+]2[O-])cc1Br [Compound 121, (Z)-2-(5-bromo-2-hydroxy-4-methoxybenzoyl)-3-hydroxy pyridine N-oxide O-t-butyloxime] |  | 3 | 0 | 57 |  |  | 82 | 0
